Test results taken from ChEMBL document CHEMBL2363022, “Malaria Box Schistosomiasis Screening Data” (2013).

Assays:
Type in all cases: functional
Schistosoma mansoni [1] = test system: Schistosoma mansoni; parameters: scale not given here
Schistosoma mansoni [2] = test system: Schistosoma mansoni; parameters: scale not given here; remark: listed apart in the source
Schistosoma mansoni [3] = test system: Schistosoma mansoni; parameters: scale not given here; remark: listed apart in the source
Schistosoma mansoni [4] = assay: MMV: Toxicity @ 5 uM to 4-5 Schistosoma mansoni adult males after 24 h on a scale of 0 (none) - 4 (most). Includes short descriptors of effects as judged visually (PMID:19597541). Only those Malaria box 'drug-like' cpds yielding the most severe phenotypes vs. somules were tested. Caffrey group UCSF.
Schistosoma mansoni [5] = assay: MMV: Toxicity @ 5 uM to 4-5 Schistosoma mansoni adult males after 48 h on a scale of 0 (none) - 4 (most). Includes short descriptors of effects as judged visually (PMID:19597541). Only those Malaria box 'drug-like' cpds yielding the most severe phenotypes vs. somules were tested. Caffrey group UCSF.
Schistosoma mansoni [6] = assay: MMV: Toxicity @ 5 uM to 4-5 Schistosoma mansoni adult males after 72 h on a scale of 0 (none) - 4 (most). Includes short descriptors of effects as judged visually (PMID:19597541). Only those Malaria box 'drug-like' cpds yielding the most severe phenotypes vs. somules were tested. Caffrey group UCSF.
Schistosoma mansoni [7] = assay: (§1) MMV: Motility assay. Percent change (relative to DMSO controls) @ 5 uM of movement of 4-5 Schistosoma mansoni adult males after 24 h as measured by the Consensus Voting Luminance Difference algorithm available on WormAssay (PMID:22303493). Occasional incongruence ocurrs between the motility scores and the visually adjudicated 'toxicity scores'. In these cases the 'toxicity score' should be prioritized. Only those Malaria box 'Drug-like' cpds yielding the most severe phenotypes vs. somules were tested. Caffrey group UCSF.
Schistosoma mansoni [8] = assay: as §1, with “48” for “24”
Schistosoma mansoni [9] = assay: as §1, with “72” for “24”

Compound | Toxicity (Schistosoma mansoni [1]) | Toxicity (Schistosoma mansoni [2]) | Toxicity (Schistosoma mansoni [3]) | Toxicity (Schistosoma mansoni [4]) | Toxicity (Schistosoma mansoni [5]) | Toxicity (Schistosoma mansoni [6]) | Motility (Schistosoma mansoni [7]) | Motility (Schistosoma mansoni [8]) | Motility (Schistosoma mansoni [9])
COc1ccc(Nc2nc(NCc3ccccc3)c3ccccc3n2)cc1 | 2 | 4 | 4 | 0 | 0 | 0 | 100 | 105.7 | No effect
Br.CCN(CC)S(=O)(=O)c1ccc(-c2csc(Nc3ccc(C)c(C)c3)n2)cc1 | 2 | 2 | 2 | 2 | 2 | 4 | 21.8 | 3.9 | 2.5
CCN(CC)CCn1c(=N)n(CC(O)c2ccc(Cl)c(Cl)c2)c2ccccc21.Cl (centres undefined) | 3 | 4 | 4 | 0 | 1 | 0 | 68.1 | 7.4 | 66.9
CC(C)(C)CC(C)(C)NCC(O)COc1ccc(Cl)cc1Cl (centres undefined) | 0 | 4 | 4 | 0 | 1 |  |  | 53 | 
CCOc1ccccc1NC(=O)CN1CCN(C(=O)c2ccco2)CC1 | 0 | 0 | 0 |  |  |  |  |  | 
COc1ccc(CNC(=O)c2cc3c(=O)n4ccccc4nc3n(CCc3ccccc3)c2=N)cc1 | 1 | 4 | 4 |  |  |  |  |  | 
CC(O)(c1ccc(Cl)cc1)C(CN1CCCCC1)c1ccccc1.Cl (centres undefined) | 0 | 0 | 0 |  |  |  |  |  | 
CC(C)(C)c1ccc(C2CC3=Nc4ccccc4N(C(=O)c4ccccc4Cl)C(c4ccc(F)cc4)C3=C(O)C2)cc1 (centres undefined) | 1 | 1 | 4 |  |  |  |  |  | 
OC1=C2C(=Nc3ccccc3SC2c2ccc(Br)cc2)c2ccccc21 (centres undefined) | 1 | 0 | 0 |  |  |  |  |  | 
O=C(Nc1ccccc1O)c1ccc(Oc2cccc(C(=O)Nc3ccccc3O)c2)cc1 | 0 | 2 | 2 |  |  |  |  |  | 
FC(F)(F)c1cccc(Nc2nc3ccccc3nc2Nc2cccc(C(F)(F)F)c2)c1 | 3 | 4 | 4 |  |  |  |  |  | 
COc1ccc(CCn2c(=N)c(C(=O)NCc3cccnc3)cc3c(=O)n4cccc(C)c4nc32)cc1 | 2 | 0 | 4 |  |  |  |  |  | 
CSC1=NC(=Nc2c(C)cccc2C)C2(CCC(C(C)(C)C)CC2)N1c1ccc(Cl)cc1 (centres undefined) | 1 | 1 | 0 |  |  |  |  |  | 
COc1cccc(Nc2nc(NCCO)c3ccccc3n2)c1.Cl | 0 | 0 | 0 |  |  |  |  |  | 
CN1CCN(c2nc(Nc3ccc(O)cc3)nc3ccccc23)CC1.Cl | 0 | 0 | 0 |  |  |  |  |  | 
CC1CCCCN1CCCNC(=O)c1ccc2c(c1)sc1nc(-c3ccc(F)cc3)cn12 (centres undefined) | 2 | 0 | 1 |  |  |  |  |  | 
CCCCc1c(CCC)c(=N)c2ccccc2n1C.I | 0 | 0 | 0 |  |  |  |  |  | 
CCCCCCC(O)(c1ccc(F)cc1)C(CN1CCOCC1)c1ccccc1.Cl (centres undefined) | 0 | 0 | 0 |  |  |  |  |  | 
CCCCCCOC(=O)C1=C(C)NC(=O)NC1c1ccccc1F (centres undefined) | 0 | 0 | 0 |  |  |  |  |  | 

Compound | Toxicity (Schistosoma mansoni [1]) | Toxicity (Schistosoma mansoni [2]) | Toxicity (Schistosoma mansoni [3]) | Toxicity (Schistosoma mansoni [4]) | Toxicity (Schistosoma mansoni [5]) | Toxicity (Schistosoma mansoni [6]) | Motility (Schistosoma mansoni [7]) | Motility (Schistosoma mansoni [8]) | Motility (Schistosoma mansoni [9])
CCOc1c(Cl)cc(CNCC(O)c2ccccc2)cc1OC (centres undefined) | 0 | 0 | 0 |  |  |  |  |  | 
CCOC(=O)C1=C(C)N=c2sc(=Cc3cc(Cl)ccc3O)c(=O)n2C1c1ccc(OC)cc1 (centres undefined) | 0 | 0 | 0 |  |  |  |  |  | 
Cc1ccnc(NC(c2cccc(OCc3ccccc3)c2)c2ccc3cccnc3c2O)c1 (centres undefined) | 1 | 4 | 4 |  |  |  |  |  | 
CN(C)c1ccc(C=Cc2nc(=O)c3ccccc3o2)cc1 | 0 | 0 | 0 |  |  |  |  |  | 
Oc1ccc(Br)cc1CN1CCN(Cc2ccc(Cl)cc2)CC1 | 1 | 0 | 0 |  |  |  |  |  | 
CN(C)CCCNc1c2ccccc2nc2ccccc12 | 2 | 2 | 4 |  |  |  |  |  | 
Cc1cccc(Nc2nc(N)c3ccccc3n2)c1.Cl | 2 | 0 | 0 |  |  |  |  |  | 
COc1ccc(C(O)(CCC(C)C)C(CN2CCOCC2)c2ccc(Cl)cc2)cc1.Cl (centres undefined) | 0 | 0 | 0 |  |  |  |  |  | 
COc1ccccc1N1C(=N)SC(=Cc2ccc(OCc3ccccc3F)cc2)C1=O | 0 | 0 | 0 |  |  |  |  |  | 
CCOc1cc2c(cc1OCC)C(c1cc(C)c(O)c(C)c1)NCC2.Cl (centres undefined) | 2 | 0 | 0 |  |  |  |  |  | 
CCOc1c(Br)cc(C2C(C(=O)OC)=CN(C)C=C2C(=O)OC)cc1OC | 0 | 0 | 0 |  |  |  |  |  | 
CCOC(=O)c1c(C)n(-c2ccc(Cl)cc2)c2ccc(OC(=O)C=Cc3ccccc3)cc12 | 0 | 0 | 0 |  |  |  |  |  | 
OCCNc1nc(Nc2ccc(Cl)c(Cl)c2)nc2ccccc12 | 2 | 0 | 4 |  |  |  |  |  | 
COc1cccc(-c2nn(C)c3sc(C(=O)NCCN4CCN(c5ccccc5F)CC4)cc23)c1 | 0 | 0 | 3 |  |  |  |  |  | 
CCOc1ccc2c(c1)CN(Cc1ccc(Cl)cc1)CO2 | 2 | 0 | 0 |  |  |  |  |  | 
COc1ccccc1NC1=C(N2CCCCC2)C(=O)c2ccccc2C1=O | 4 | 4 | 4 |  |  |  |  |  | 
O=c1nc(C=Cc2ccc(Cl)cc2)oc2ccccc12 | 2 | 0 | 0 |  |  |  |  |  | 
COc1ccc(C2c3ccc4ccccc4c3Oc3ncn(CCCN(C)C)c(=N)c32)cc1 (centres undefined) | 4 | 4 | 4 |  |  |  |  |  | 
O=C(Nc1ccc(N2CCCCC2)c(Cl)c1)c1ccc(Br)o1 | 0 | 0 | 0 |  |  |  |  |  | 

Compound | Toxicity (Schistosoma mansoni [1]) | Toxicity (Schistosoma mansoni [2]) | Toxicity (Schistosoma mansoni [3]) | Toxicity (Schistosoma mansoni [4]) | Toxicity (Schistosoma mansoni [5]) | Toxicity (Schistosoma mansoni [6]) | Motility (Schistosoma mansoni [7]) | Motility (Schistosoma mansoni [8]) | Motility (Schistosoma mansoni [9])
CCn1c(SCC(=O)Nc2cc(C(F)(F)F)ccc2Cl)nc2ccccc2c1=O | 0 | 0 | 0 |  |  |  |  |  | 
OC1CCCCC1C1(NC(=S)Nc2ccccc2)CCCCC1 (centres undefined) | 0 | 0 | 0 |  |  |  |  |  | 
COc1ccc(C2NCCc3c2[nH]c2ccccc32)cc1CN1CCN(c2ccc(F)cc2)CC1.Cl (centres undefined) | 3 | 4 | 4 |  |  |  |  |  | 
CSc1ccccc1C(=O)Nc1nc(-c2ccccn2)cs1 | 0 | 0 | 0 |  |  |  |  |  | 
Cc1sc(NC(=O)c2ccccc2)c(C(c2cccs2)N2CCN(c3ccccc3)CC2)c1C (centres undefined) | 0 | 0 | 0 |  |  |  |  |  | 
COc1ccc(C2=C(c3ccc(OC)cc3)C3(c4ccccc4)C(=O)C2(c2ccccc2)C2C(=O)N(c4ccc(C)cc4)C(=O)C23)cc1 (centres undefined) | 0 | 0 | 0 |  |  |  |  |  | 
CC(=O)c1ccc(NC(=O)CSc2nc(-c3ccccc3Cl)ns2)cc1 | 0 | 0 | 0 |  |  |  |  |  | 
CCc1ccc(Nc2cc(C)c3ccc(O)cc3n2)cc1.Cl | 2 | 2 | 3 |  |  |  |  |  | 
O=C1CC(O)(C(F)(F)C(F)(F)F)Oc2ccccc21 (centres undefined) | 0 | 0 | 1 |  |  |  |  |  | 
COCCN(C(=O)Cc1cccs1)C(C(=O)NCc1ccc(OC)cc1)c1ccc(C(C)C)cc1 (centres undefined) | 0 | 0 | 0 |  |  |  |  |  | 
COc1ccccc1CNC(=O)CCn1c(=O)[nH]c2ccccc2c1=O | 0 | 0 | 0 |  |  |  |  |  | 
COc1ccc(CN2CCCC(C(=O)c3ccc(C(F)(F)F)cc3)C2)c(O)c1 (centres undefined) | 0 | 0 | 0 |  |  |  |  |  | 
COc1ccc2c(=O)cc(C(Cl)(Cl)Cl)oc2c1 | 0 | 0 | 3 |  |  |  |  |  | 
COc1ccc(C=C2SC(=N)N(c3ccccc3OC)C2=O)cc1 | 0 | 0 | 0 |  |  |  |  |  | 
Cc1sc2ncnc(Sc3nc4ccccc4[nH]3)c2c1C | 1 | 1 | 0 |  |  |  |  |  | 
CCOc1cc(Br)c(C(C)NC(=O)c2cccc(OC)c2)cc1OCC (centres undefined) | 0 | 0 | 0 |  |  |  |  |  | 
CCOC(=O)c1ccc2nc(-c3ccccc3)cc(O)c2c1 | 0 | 0 | 4 |  |  |  |  |  | 
CCCCOc1ccc(C(=O)Nc2cc(C)on2)cc1 | 0 | 0 | 0 |  |  |  |  |  | 
